Data taken from patent US11771772B2, “Glycemic control using intrinsic factor bound to a vitamin B12 conjugate of a glucagon-like peptide-1 receptor agonist” (Syracuse University, priority 2015, dated 2023).
Like-named read-outs stand apart in the source and are kept apart here.

Columns and labels:
Intrinsic factor [1] = target: T1, Intrinsic factor (Homo sapiens, UniProt P27352); settings: general statement in description; read-out: IF binding affinity (Kd); cited from earlier work
T1 construct: purchased Xeragenx LLC XGX-003; host or cells: Arabidopsis (transgenic plant)

Intrinsic factor [2] = target: T1, Intrinsic factor; assay: IF binding, chase experiment with 57Co radiolabeled B12; settings: read-out: binding affinity to IF
From the text: Peptides were purchased through CSBio (Menlo Park, Calif.) and all materials were purchased through Sigma-Aldrich unless stated otherwise. Apo-IF was supplied by Xeragenx LLC (cat no: XGX-003). […] IF used in these assays was produced in the plant Arabidopsis in the apo-form and of high purity

T1 sequence (P27352 19-417): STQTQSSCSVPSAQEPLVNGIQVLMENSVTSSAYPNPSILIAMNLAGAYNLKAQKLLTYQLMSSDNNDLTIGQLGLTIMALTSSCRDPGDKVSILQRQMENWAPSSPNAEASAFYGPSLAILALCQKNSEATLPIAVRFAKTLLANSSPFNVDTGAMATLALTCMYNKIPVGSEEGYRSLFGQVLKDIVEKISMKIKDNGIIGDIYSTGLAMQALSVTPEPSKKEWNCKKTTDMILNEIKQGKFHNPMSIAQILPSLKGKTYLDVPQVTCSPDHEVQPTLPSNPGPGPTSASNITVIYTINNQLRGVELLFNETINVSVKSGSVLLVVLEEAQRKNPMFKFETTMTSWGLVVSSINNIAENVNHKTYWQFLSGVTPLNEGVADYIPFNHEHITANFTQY

In the case of cyanocobalamin [Compound B12], the Kd (Intrinsic factor [1]) is given as ~0.001 nM and the Kd (Intrinsic factor [2]) is given as 0.12 nM.
